Results as given in patent publication US20070098649A1, “Method and composition for controlling oral pathogens” (priority 2004, published 2007).
Structures can show the parent of a compound that is named as a salt. Where two headings read alike, the source gives them in different places. Marks after values point to notes of the source that are not given here.

How the values were obtained:
[1] = system: Actinobacillus actinomycetemcomitans; assay: MIC microdilution assay; type: cell-based; details: for MIC: Aggregatibacter actinomycetemcomitans
[2] = system: Porphymonas gingivalis; assay: MIC microdilution assay; type: cell-based; details: P. gingivalis; for MIC: Porphyromonas gingivalis
[3] = system: Fusobacterium nucleatum; assay: MIC microdilution assay; type: cell-based; details: F. nucleatum
[4] = system: Streptococcus mutans; assay: MIC microdilution assay; type: cell-based; details: S. mutans; for MIC: Streptococcus mutans
[5] = system: Streptococcus gordonii; assay: MIC microdilution assay; type: cell-based; details: S. gordonii
[6] = system: oral pathogens; assay: Combination determination, statements on the oral pathogens; type: cell-based; details: berberine hydrochloride / berberine (B-CG and B-S)
Description: (§1) The alkaloids were tested in pair-wise combinations (fractional inhibitory concentrations, FIC) against all the bacteria to determine whether interactions were antagonistic (FIC>1), additive (0.5<FIC<1), or synergistic (FIC<0.5). The FIC was calculated by the following: (MIC Acombination/MIC Aalone)+(MIC Bcombination/MIC Balone). Where A represents compound 1 and B represents compound 2. […] In the case of A. actinomycetemcomitans and P. aeruginosa, CHX was used at 0.78 to 50 μg ml^−1. Berberine (B-CG and B-S) was used at concentrations 0.9 to 250 μg ml^−1. The antibacterial efficacy of berberine (1.95 to 500 μg ml^−1) was tested in combination against P. aeruginosa with CHX (0.78 to 50 μg ml^−1) (Sigma Chemicals) and the polymyxin antibiotic Col (0.04 to 25 μg ml^−1) (Sigma Chemicals). The plates were incubated for 24 hours.

[7] = system: Staphylococcus aureus; assay: MIC microdilution assay; type: cell-based; details: S. aureus, agent alone, read-out: MIC of the antimicrobial agents alone
[8] = system: Escherichia coli; assay: MIC microdilution assay; type: cell-based; details: E. coli, agent alone, read-out: MIC of the antimicrobial agents alone
[9] = system: Fusobacterium nucleatum; assay: Combination determination (FIC, MIC in combination); type: cell-based; details: F. nucleatum; berberine (B-CG) combined with CHX, Tet or Dox; MIC of the named agent in the combination
Description: as §1

[10] = system: Streptococcus gordonii; assay: as above; type: cell-based; details: S. gordonii; berberine (B-CG) combined with CHX, Tet or Dox; MIC of the named agent in the combination
Description: as §1

[11] = system: Porphymonas gingivalis; assay: as above; type: cell-based; details: P. gingivalis; berberine (B-CG) combined with CHX, Tet or Dox; MIC of the named agent in the combination
Description: as §1

[12] = system: Staphylococcus aureus; assay: as above; type: cell-based; details: S. aureus
Description: as §1

[13] = system: Escherichia coli; assay: as above; type: cell-based; details: E. coli
Description: as §1

[14] = system: Actinobacillus actinomycetemcomitans; assay: as above; type: cell-based; details: A. actinomycetemcomitans grown under anaerobic conditions; berberine (B-CG) combined with CHX, Tet or Dox; MIC of the named agent in the combination
Description: as §1

[15] = system: Streptococcus mutans; assay: as above; type: cell-based; details: S. mutans; berberine (B-CG) combined with CHX, Tet or Dox; MIC of the named agent in the combination
Description: as §1
CHX was diluted from left to right at 10 to 0.08 μg ml^−1 ([…] 1 to 8), berberine was diluted from top to bottom at 250 to 0.09 μg ml^−1 ([…] 1 to 8). Column 9 was the cell control, column 10 was berberine alone (250 to 0.09 μg ml^−1); and column 11 was CHX alone (10 to 0.08 μg ml^−1). Row H was the solvent control (8% DMSO, H1 to H8). Column 12 was the media blank. The dilution assay was designed such that A1 contained the highest concentration of both agents (berberine 250 μg ml^−1 and CHX 10 μg ml^−1). The final concentration of berberine in wells A2 to A8 was […]. The FIC value was calculated from well C6. FIC was calculated by: (MIC Acombination/MIC Aalone)+(MIC Bcombination/MIC Balone).

[16] = system: S. aureus, E. coli, P. aeruginosa, and S. sanguis; details: isolated from H. canadensis; cited from earlier work
[17] = system: Pseudomonas aeruginosa; assay: MIC microdilution assay; type: cell-based; details: P. aeruginosa; agent alone
[18] = system: Pseudomonas aeruginosa; assay: Combination determination (FIC, MIC in combination); type: cell-based; details: P. aeruginosa
Description: as §1

[19] = agent alone, read-out: MIC of the antimicrobial agents alone
[20] = berberine (B-CG) combined with CHX, Tet or Dox, MIC of the named agent in the combination
[21] = berberine hydrochloride / chloride

In the case of COc1cc2c(cc1O)[C@@H]1Cc3ccc(OC)c(OC)c3CN1CC2 [Isocorypalamine, isocorypalmine], the “MIC of Goldenseal Alkaloids Against Selected Oral Pathogens” value ([1]; Aa, A. actinomycetemcomitans) is reported as greater than 125 µg/mL, the “MIC of Goldenseal Alkaloids Against Selected Oral Pathogens” value ([2]; Pg) is reported as greater than 125 µg/mL and the “MIC of Goldenseal Alkaloids Against Selected Oral Pathogens” value ([3]; Fn) is reported as greater than 125 µg/mL. For the same compound, the “MIC of Goldenseal Alkaloids Against Selected Oral Pathogens” value ([4]; Sm) was greater than 125 µg/mL and the “MIC of Goldenseal Alkaloids Against Selected Oral Pathogens” value ([5]; Sg) was greater than 125 µg/mL.
For CN(C)[C@@H]1C(O)=C(C(N)=O)C(=O)[C@@]2(O)C(O)=C3C(=O)c4c(O)cccc4[C@@](C)(O)[C@H]3C[C@@H]12 [Tet, tetracycline HCl], the MIC ([1]; A. actinomycetemcomitans grown under anaerobic conditions, agent alone, read-out: MIC of the antimicrobial agents alone) was 25 µg/mL, the MIC [2, 19] was 0.08 µg/mL and the MIC ([3]; Fusobacterium nucleatum, agent alone, read-out: MIC of the antimicrobial agents alone) was 0.16 µg/mL. The “Growth inhibition effect when combined with berberine” value (“Growth inhibition effect” for short) [6] was “synergistic”, the MIC [7] was 1.53 µg/mL and the MIC [8] was 3.06 µg/mL. The MIC [4, 19] was 1.56 µg/mL, the “MIC of the antimicrobial agents in combination” value (shortened to “MIC … in combination”) [9] was 0.02 µg/mL and the “MIC … in combination” value [10] was 0.08 µg/mL. The “MIC … in combination” value [11] was 0.01 µg/mL, the “MIC … in combination” value [12, 20] was 0.39 µg/mL and the “Growth inhibition effect” value [12, 21] was “synergistic”. For the same compound, the “MIC … in combination” value [13, 20] was 1.53 µg/mL, the “Growth inhibition effect” value [13, 21] was “synergistic” and the “MIC … in combination” value [14] was 12.5** μg ml^−1. The MIC ([5]; Streptococcus gordonii, agent alone, read-out: MIC of the antimicrobial agents alone) was 0.31 µg/mL and the “MIC … in combination” value [15] was 0.20 µg/mL.
In the case of COc1ccc2cc3[n+](cc2c1O)CCc1cc2c(cc1-3)OCO2 [berberrubine], the “Concentration without antimicrobial activity (MIC bound)” value ([1]; A. actinomycetecomitans) is reported as no less than 300 μml^−1, the MIC ([1]; A. actinomycetemcomitans, read-out: Concentration without growth inhibition (MIC bound)) is reported as greater than 300 µg/mL and the MIC ([2]; comparable to berberine, read-out: MIC) is reported as 17 µg/mL. The “Concentration without growth inhibition (MIC bound)” value ([4]; growth hindered, but not inhibited at lower concentrations) was “greater than 300 μml^−1” and the MIC ([4]; growth limited but not inhibited at lower concentrations, text b118, read-out: Concentration without growth inhibition (MIC bound)) was greater than 300 µg/mL.
For COc1ccc2c(c1OC)C(=O)O[C@@H]2[C@H]1c2cc3c(cc2CCN1C)OCO3 [β-hydrastine], the Antibacterial activity [16] is listed as “inactive against all the tested organisms”.
In the case of colistin sulfate, the “MIC of the antimicrobial agents alone” value [17] is reported as 3.13 µg/mL, the “Interaction when combined with berberine” value [18] is reported as “no clear additive or synergistic effect” and the “MIC … in combination” value ([18]; berberine combined with CHX or Col, MIC of the named agent in the combination) is reported as 1.56 µg/mL.
